ChEMBL document CHEMBL3739323, “Design, synthesis, and biological evaluation of novel quinazolinyl-diaryl urea derivatives as potential anticancer agents” (Eur J Med Chem, 2016)
Activity calls are given as the source filed them. The calls are words filed in the database; no cut-off is given here.

Key:
A549 [1] = test: Induction of apoptosis in human A549 cells assessed as late apoptotic cells at 10 uM after 48 hrs by Annexin-V/Propidium iodide dual staining based flow cytometric analysis (reference value: 1.44 +/- 0.43%); type: functional
[2] = biological target: Serine/threonine-protein kinase B-raf (Homo sapiens) (UniProt P15056); test: Inhibition of B-Raf in human A549 cells at 5 to 20 uM after 48 hrs by Western blot analysis; type: cell-based
Sequence of Serine/threonine-protein kinase B-raf (Homo sapiens) (P15056 whole entry): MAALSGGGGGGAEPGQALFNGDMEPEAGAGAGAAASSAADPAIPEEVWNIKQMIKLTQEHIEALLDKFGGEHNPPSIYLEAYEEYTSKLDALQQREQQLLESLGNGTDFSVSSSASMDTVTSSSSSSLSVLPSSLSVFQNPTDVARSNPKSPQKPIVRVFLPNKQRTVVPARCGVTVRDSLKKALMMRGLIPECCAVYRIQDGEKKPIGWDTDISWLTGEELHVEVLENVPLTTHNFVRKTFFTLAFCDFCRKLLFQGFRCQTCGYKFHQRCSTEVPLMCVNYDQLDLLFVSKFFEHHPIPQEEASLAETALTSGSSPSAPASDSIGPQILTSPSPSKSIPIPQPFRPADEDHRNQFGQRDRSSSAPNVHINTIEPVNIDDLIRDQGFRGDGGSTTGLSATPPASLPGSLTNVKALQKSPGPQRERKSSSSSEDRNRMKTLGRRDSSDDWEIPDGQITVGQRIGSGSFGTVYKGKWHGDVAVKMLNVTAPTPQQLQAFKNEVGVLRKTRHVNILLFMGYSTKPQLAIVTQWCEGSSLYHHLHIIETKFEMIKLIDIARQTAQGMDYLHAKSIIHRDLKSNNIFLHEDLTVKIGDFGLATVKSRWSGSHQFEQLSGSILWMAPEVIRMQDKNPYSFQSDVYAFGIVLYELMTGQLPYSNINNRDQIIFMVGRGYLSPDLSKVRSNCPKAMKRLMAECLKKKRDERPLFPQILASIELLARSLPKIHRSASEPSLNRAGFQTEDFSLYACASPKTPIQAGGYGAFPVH

A549 [3] = test: Induction of apoptosis in human A549 cells assessed as downregulation of Bcl-2 expression after 48 hrs by Western blot analysis; type: functional, cell-based
A549 [4] = test: Induction of apoptosis in human A549 cells assessed as necrotic cells at 10 uM after 6 hrs by Annexin-V-FITC/Propidium iodide staining based flow cytometric analysis (reference value: 0.28 +/- 0.09%); type: functional
A549 [5] = test: Cell cycle arrest in human A549 cells assessed as accumulation at G0/G1 phase at 20 uM by propidium iodide staining based flow cytometric analysis (reference value: 63.82 +/- 2.66%); type: functional
[6] = biological target: RAF proto-oncogene serine/threonine-protein kinase (Homo sapiens) (UniProt P04049); test: Inhibition of c-Raf in human A549 cells assessed as downregulation of ERK1/2 expression after 48 hrs by Western blot analysis; type: cell-based
Sequence of RAF proto-oncogene serine/threonine-protein kinase (Homo sapiens) (P04049 whole entry): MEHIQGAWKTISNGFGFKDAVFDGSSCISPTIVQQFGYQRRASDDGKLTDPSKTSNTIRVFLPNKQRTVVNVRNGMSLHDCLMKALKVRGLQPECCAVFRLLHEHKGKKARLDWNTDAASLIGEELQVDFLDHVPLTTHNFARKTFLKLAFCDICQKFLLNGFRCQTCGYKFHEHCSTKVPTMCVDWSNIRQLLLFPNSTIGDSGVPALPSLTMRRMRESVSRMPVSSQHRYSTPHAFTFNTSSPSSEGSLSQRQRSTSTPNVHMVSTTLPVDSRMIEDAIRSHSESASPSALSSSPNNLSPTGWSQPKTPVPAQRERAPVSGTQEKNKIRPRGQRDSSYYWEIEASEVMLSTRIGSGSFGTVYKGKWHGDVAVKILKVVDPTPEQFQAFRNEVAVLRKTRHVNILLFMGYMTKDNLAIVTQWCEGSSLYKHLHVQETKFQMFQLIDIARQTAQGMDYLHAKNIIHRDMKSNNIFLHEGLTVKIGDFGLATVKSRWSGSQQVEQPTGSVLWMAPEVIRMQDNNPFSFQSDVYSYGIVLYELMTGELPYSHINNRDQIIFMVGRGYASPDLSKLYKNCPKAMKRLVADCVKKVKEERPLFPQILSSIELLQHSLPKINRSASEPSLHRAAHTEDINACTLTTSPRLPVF

A549 [7] = test: Effect on total Rb level in human A549 cells after 48 hrs by Western blot analysis; type: ADME, cell-based; details: a549, 48 h
A549 [8] = test: Induction of apoptosis in human A549 cells assessed as increase in ROS production at 20 uM after 12 hrs by DCF staining based luminescence spectrometric analysis relative to control; type: functional
A549 [9] = test: Induction of apoptosis in human A549 cells assessed as necrotic cells at 10 uM after 48 hrs by Annexin-V/Propidium iodide dual staining based flow cytometric analysis (reference value: 2.57 +/- 0.39%); type: functional
A549 [10] = test: Induction of apoptosis in human A549 cells assessed as viable cells at 20 uM after 48 hrs by Annexin-V/Propidium iodide dual staining based flow cytometric analysis (reference value: 92.46 +/- 4.23%); type: functional; details: A549, 48 h, read-out: Activity
A549 [11] = test: Induction of apoptosis in human A549 cells assessed as upregulation of caspase-8 expression after 48 hrs by Western blot analysis; type: functional, cell-based
A549 [12] = test: Induction of apoptosis in human A549 cells assessed as viable cells at 5 uM after 6 hrs by Annexin-V-FITC/Propidium iodide staining based flow cytometric analysis (reference value: 95.48 +/- 2.03%); type: functional; details: A549, 6 h, read-out: Activity
A549 [13] = test: Cell cycle arrest in human A549 cells assessed as accumulation at G0/G1 phase at 5 uM by propidium iodide staining based flow cytometric analysis (reference value: 63.82 +/- 2.66%); type: functional
A549 [14] = test: Induction of apoptosis in human A549 cells assessed as late apoptotic cells at 20 uM after 48 hrs by Annexin-V/Propidium iodide dual staining based flow cytometric analysis (reference value: 1.44 +/- 0.43%); type: functional
A549 [15] = test: Cell cycle arrest in human A549 cells assessed as accumulation at S phase at 20 uM by propidium iodide staining based flow cytometric analysis (reference value: 23.41 +/- 2.19%); type: functional
[16] = Cytotoxicity against human BEAS2B cells by MTT assay; type: cell-based; details: BEAS-2B
A549 [17] = test: Cell cycle arrest in human A549 cells assessed as accumulation at S phase at 10 uM by propidium iodide staining based flow cytometric analysis (reference value: 23.41 +/- 2.19%); type: functional
A549 [18] = test: Induction of apoptosis in human A549 cells assessed as early apoptotic cells at 5 uM after 48 hrs by Annexin-V/Propidium iodide dual staining based flow cytometric analysis (reference value: 3.53 +/- 0.89%); type: functional
[19] = biological target: RAF proto-oncogene serine/threonine-protein kinase (Homo sapiens) (UniProt P04049); test: Inhibition of c-Raf in human A549 cells assessed as downregulation of phosphorylated ERK1/2 expression after 48 hrs by Western blot analysis; type: cell-based
A549 [20] = test: Disruption of mitochondrial membrane potential in human A549 cells assessed as ratio of green to red fluorescence intensity at 20 uM after 24 hrs by JC-1 staining based flow cytometric analysis; type: functional
A549 [21] = test: Cell cycle arrest in human A549 cells assessed as accumulation at G2/M phase at 5 uM by propidium iodide staining based flow cytometric analysis (reference value: 12.77 +/- 1.55%); type: functional
A549 [22] = test: Induction of apoptosis in human A549 cells assessed as late apoptotic cells at 5 uM after 48 hrs by Annexin-V/Propidium iodide dual staining based flow cytometric analysis (reference value: 1.44 +/- 0.43%); type: functional
A549 [23] = test: Cell cycle arrest in human A549 cells assessed as accumulation at G2/M phase at 20 uM by propidium iodide staining based flow cytometric analysis (reference value: 12.77 +/- 1.55%); type: functional
A549 [24] = test: Induction of apoptosis in human A549 cells assessed as upregulation of caspase-3 expression after 48 hrs by Western blot analysis; type: functional, cell-based
A549 [25] = test: Induction of cell cycle arrest in human A549 cells assessed as downregulation of p-Rb(Ser780) expression after 48 hrs by Western blot analysis; type: functional, cell-based
[26] = Antiproliferative activity against human MGC803 cells by MTT assay; type: functional, cell-based; details: MGC-803
A549 [27] = test: Induction of apoptosis in human A549 cells assessed as late apoptotic cells at 10 uM after 6 hrs by Annexin-V-FITC/Propidium iodide staining based flow cytometric analysis (reference value: 0.41 +/- 0.19%); type: functional
A549 [28] = test: Antiproliferative activity against human A549 cells by MTT assay; type: functional, cell-based
A549 [29] = test: Induction of apoptosis in human A549 cells assessed as late apoptotic cells at 5 uM after 6 hrs by Annexin-V-FITC/Propidium iodide staining based flow cytometric analysis (reference value: 0.41 +/- 0.19%); type: functional
A549 [30] = test: Cell cycle arrest in human A549 cells assessed as accumulation at S phase at 5 uM by propidium iodide staining based flow cytometric analysis (reference value: 23.41 +/- 2.19%); type: functional
A549 [31] = test: Cell cycle arrest in human A549 cells assessed as accumulation at G0/G1 phase at 10 uM by propidium iodide staining based flow cytometric analysis (reference value: 63.82 +/- 2.66%); type: functional
A549 [32] = test: Induction of apoptosis in human A549 cells assessed as upregulation of Bax expression after 48 hrs by Western blot analysis; type: functional, cell-based
A549 [33] = test: Selectivity index, ratio of IC50 for human BEAS2B cells to IC50 for human A549 cells; type: functional
A549 [34] = test: Induction of apoptosis in human A549 cells assessed as necrotic cells at 20 uM after 48 hrs by Annexin-V/Propidium iodide dual staining based flow cytometric analysis (reference value: 2.57 +/- […]%); type: functional
A549 [35] = test: Disruption of mitochondrial membrane potential in human A549 cells at 10 uM by JC-1 staining based laser scanning confocal microscopic analysis; type: functional, cell-based
A549 [36] = test: Induction of cell cycle arrest in human A549 cells assessed as downregulation of p-Rb(Ser807/811) expression after 48 hrs by Western blot analysis; type: functional, cell-based
A549 [37] = test: Cell cycle arrest in human A549 cells assessed as accumulation at G2/M phase at 10 uM by propidium iodide staining based flow cytometric analysis (reference value: 12.77 +/- 1.55%); type: functional

inhibition [2]: inactive
inhibition [6]: Dose-dependent effect
inhibition [19]: Dose-dependent effect
IC50 (A549 [28]): 5.21 µM
SMILES: COc1cc2ncnc(NCc3cccc(NC(=O)Nc4ccc(C(C)(C)C)cc4)c3)c2cc1OC
Activity (A549 [1]): 7.83%
Activity (A549 [3]): Dose-dependent effect
Activity (A549 [4]): 0.56%
Activity (A549 [5]): 95.33%
Activity (A549 [7]): Non-toxic
Activity (A549 [8]): 80.9%
Activity (A549 [9]): 22.9%
viability at 20 µM (A549 [10]): 51.6%
Activity (A549 [11]): Dose-dependent effect
viability at 5 µM (A549 [12]): 89.4%
Activity (A549 [13]): 66.29%
Activity (A549 [14]): 5.65%
Activity (A549 [15]): 3.6%
IC50 [16]: 26.5 µM
Activity (A549 [17]): 6.91%
Activity (A549 [18]): 2.54%
Ratio (A549 [20]): 125
Activity (A549 [21]): 13.43%
Activity (A549 [22]): 7.84%
Activity (A549 [23]): 1.07%
Activity (A549 [24]): Dose-dependent effect
Activity (A549 [25]): Dose-dependent effect
IC50 [26]: 6.79 µM
Activity (A549 [27]): 5.4%
Activity (A549 [29]): 5.97%
Activity (A549 [30]): 20.28%
Activity (A549 [31]): 85.44%
Activity (A549 [32]): Dose-dependent effect
Ratio IC50 (A549 [33]): >5
Activity (A549 [34]): 42.2%
Activity (A549 [35]): Active
Activity (A549 [36]): Dose-dependent effect
Activity (A549 [37]): 7.65%
